Reference: patent US20230128402A1 (The Trustees of Princeton University, priority 2020, published 2023)
pIC50: −log10 of the molar value.

Columns and labels:
[1] = target: T1, mALDH1a3 (Mus musculus, UniProt Q9JHW9); test: Aldh1a3 enzyme inhibition assay, recombinant mALDH1a3; format: biochemical; conditions: resorufin fluorescence, 20° C.
T1 construct: made in house; host or cells: E. coli BL21-DE3, pET-Aldh1a3
T1 sequence (Q9JHW9 1-512): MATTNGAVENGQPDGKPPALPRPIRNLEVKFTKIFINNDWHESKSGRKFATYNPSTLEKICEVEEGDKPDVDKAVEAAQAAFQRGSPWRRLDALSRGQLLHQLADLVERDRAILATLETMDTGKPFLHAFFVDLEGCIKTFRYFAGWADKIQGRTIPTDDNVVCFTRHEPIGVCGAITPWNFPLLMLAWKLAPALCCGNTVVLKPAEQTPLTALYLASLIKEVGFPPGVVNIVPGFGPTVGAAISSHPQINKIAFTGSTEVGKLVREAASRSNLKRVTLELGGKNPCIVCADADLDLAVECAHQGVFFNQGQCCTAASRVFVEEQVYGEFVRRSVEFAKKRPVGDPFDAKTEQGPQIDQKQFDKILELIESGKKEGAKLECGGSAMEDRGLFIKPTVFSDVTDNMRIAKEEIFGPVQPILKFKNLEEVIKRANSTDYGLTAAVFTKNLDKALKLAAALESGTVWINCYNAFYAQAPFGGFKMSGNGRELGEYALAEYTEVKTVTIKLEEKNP
From the text: (§1) Recombinant enzyme and inhibitor added immediately before assay. Reaction rate measured by resorufin fluorescence.

[2] = target: T2, ALDH1a3 (Homo sapiens, UniProt P47895); test: Aldh1a3 enzyme inhibition assay, recombinant hALDH1a3; format: biochemical; set-up: made in house; host or cells: E. coli BL21-DE3, pET-Aldh1a3; conditions: resorufin fluorescence, 20° C.
T2 sequence (P47895 1-512): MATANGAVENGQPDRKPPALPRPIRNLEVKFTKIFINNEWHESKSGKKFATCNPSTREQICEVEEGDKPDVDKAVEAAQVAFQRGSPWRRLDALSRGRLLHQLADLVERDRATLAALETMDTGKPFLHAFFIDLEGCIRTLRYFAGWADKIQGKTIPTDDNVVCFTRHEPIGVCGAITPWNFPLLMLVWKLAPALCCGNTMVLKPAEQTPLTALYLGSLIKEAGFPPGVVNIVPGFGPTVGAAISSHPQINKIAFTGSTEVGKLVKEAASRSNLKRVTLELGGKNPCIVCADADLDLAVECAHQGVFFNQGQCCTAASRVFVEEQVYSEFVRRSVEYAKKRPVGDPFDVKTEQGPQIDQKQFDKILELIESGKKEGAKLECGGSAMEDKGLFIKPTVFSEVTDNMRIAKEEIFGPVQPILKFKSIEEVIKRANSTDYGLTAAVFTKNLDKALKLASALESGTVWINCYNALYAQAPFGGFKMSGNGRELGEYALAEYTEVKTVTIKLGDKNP
From the text: as §1

| Structure (SMILES) | pIC50 [1] | pIC50 [2] |
| --- | --- | --- |
| CCCc1cnccc1C(=O)Nc1cc2c(cc1F)NC(=O)CC2 [Compound 5] | 6.00 to 6.60 | > 7.00 |
| CC(C)c1cnccc1C(=O)Nc1cc2c(cc1F)NC(=O)CC2 [Compound 6] | 5.30 to 6.00 | 5.30 to 6.00 |
| CCc1cnc(C)cc1C(=O)Nc1cc2c(cc1F)NC(=O)CC2 [Compound 8] | 6.60 to 7.00 | > 7.00 |
| CCc1cnccc1C(=O)Nc1ccc2c(c1)CC(C)(C)C(=O)N2 [Compound 18, N-(3,3-dimethyl-2-oxo-1,4-dihydroquinolin-6-yl)-3-ethyl-pyridine-4-carboxamide] | 5.30 to 6.00 | 6.60 to 7.00 |
| CCc1cnccc1C(=O)Nc1ccc2c(c1)C(C)(C)CC(=O)N2 [Compound 19, N-(4,4-dimethyl-2-oxo-1,3-dihydroquinolin-6-yl)-3-ethyl-pyridine-4-carboxamide] | 5.30 to 6.00 | 6.00 to 6.60 |
| CCc1cnccc1C(=O)Nc1ccc2c(c1)CN(C)C(=O)N2 [Compound 20, 3-ethyl-N-(3-methyl-2-oxo-1,4-dihydroquinazolin-6-yl)pyridine-4-carboxamide] | < 5.30 | 5.30 to 6.00 |
| Cc1cnccc1C(=O)Nc1ccc2c(c1)CCC(=O)N2 [Compound 21] | < 5.30 | < 5.30 |
| O=C1CCc2cc(Nc3nccc4ccccc34)ccc2N1 [Compound 22, 6-(1-isoquinolylamino)-3,4-dihydro-1H-quinolin-2-one] | < 5.30 | < 5.30 |
| CCc1cnccc1C(=O)Nc1ccc2c(c1)CCC(=O)N2C [Compound 23, 3-ethyl-N-(1-methyl-2-oxo-3,4-dihydroquinolin-6-yl)pyridine-4-carboxamide] | 5.30 to 6.00 | < 5.30 |
| Cc1cc(C(=O)Nc2ccc3c(c2)CCC(=O)N3)ccn1 [Compound 24] | < 5.30 | < 5.30 |
| CCc1cnccc1NC(=O)c1ccc2c(c1)CCC(=O)N2 [Compound 26, N-(3-ethyl-4-pyridyl)-2-oxo-3,4-dihydro-1H-quinoline-6-carboxamide] | < 5.30 | < 5.30 |
| CCc1cnccc1C(=O)N(C)c1ccc2c(c1)CCC(=O)N2 [Compound 27, 3-ethyl-N-methyl-N-(2-oxo-3,4-dihydro-1H-quinolin-6-yl)pyridine-4-carboxamide] | < 5.30 | < 5.30 |
| CCc1cnccc1C(=O)NCc1ccc2c(c1)CCC(=O)N2 [Compound 28, 3-ethyl-N-[(2-oxo-3,4-dihydro-1H-quinolin-6-yl)methyl]pyridine-4-carboxamide] | < 5.30 | < 5.30 |
| CCc1cc(C(=O)Nc2ccc3c(c2)CCC(=O)N3)ccn1 [Compound 29] | < 5.30 | < 5.30 |
| Cc1cnccc1/C=C/c1ccc2c(c1)CCC(=O)N2 [Compound 30, 6-[(E)-2-(3-methyl-4-pyridyl)vinyl]-3,4-dihydro-1H-quinolin-2-one] | 5.30 to 6.00 | < 5.30 |
| CCc1cnccc1CC(=O)Nc1ccc2c(c1)CCC(=O)N2 [Compound 31, 2-(3-ethyl-4-pyridyl)-N-(2-oxo-3,4-dihydro-1H-quinolin-6-yl) acetamide] | < 5.30 | < 5.30 |
| CCc1cnccc1C(=O)Nc1ccc2c(c1)NC(=O)CC2 [Compound 32] | < 5.30 | < 5.30 |
| CCc1cnccc1/C=C/c1ccc2c(c1)CCC(=O)N2 [Compound 33, 6-[(E)-2-(3-ethyl-4-pyridyl)vinyl]-3,4-dihydro-1H-quinolin-2-one] | 6.60 to 7.00 | 6.60 to 7.00 |
| CC1(C)CC(=O)Nc2ccc(Nc3nccc4ccccc34)cc21 [Compound 34, 6-(1-isoquinolylamino)-4,4-dimethyl-1,3-dihydroquinolin-2-one] | < 5.30 | < 5.30 |
| O=C1CCc2cc(Nc3ccc4ccccc4n3)ccc2N1 [Compound 35, 6-(2-quinolylamino)-3,4-dihydro-1H-quinolin-2-one] | > 7.00 | 6.00 to 6.60 |
| Cc1cc(C(=O)Nc2cc3c(cc2F)NC(=O)C(C)(C)C3)c(CC(C)C)cn1 [Compound 37, N-(7-fluoro-3,3-dimethyl-2-oxo-1,4-dihydroquinolin-6-yl)-5-isobutyl-2-methyl-pyridine-4-carboxamide] | < 5.30 | 5.30 to 6.00 |

The next lines start with the values.

| pIC50 [1] | pIC50 [2] | Structure (SMILES) |
| --- | --- | --- |
| 5.30 to 6.00 | 6.00 to 6.60 | CCc1cnccc1C(=O)Nc1cc2c(cc1F)NC(=O)C(C)(C)C2 [Compound 38] |
| 5.30 to 6.00 | 6.00 to 6.60 | CCc1cnccc1C(=O)Nc1cc2ccc(=O)[nH]c2cc1F [Compound 39, 3-ethyl-N-(7-fluoro-2-oxo-1H-quinolin-6-yl) pyridine-4-carboxamide] |
| 6.00 to 6.60 | 5.30 to 6.00 | CCc1cnccc1C(=O)Nc1cc2c(cc1F)NC(=O)CC2(C)C [Compound 40] |
| < 5.30 | < 5.30 | COc1cnccc1C(=O)Nc1cc2c(cc1F)NC(=O)C(C)(C)C2 [Compound 41, N-(7-fluoro-3,3-dimethyl-2-oxo-1,4-dihydroquinolin-6-yl)-3-methoxy-pyridine-4-carboxamide] |
| 5.30 to 6.00 | 5.30 to 6.00 | CCc1cc(C#N)ccc1C(=O)Nc1cc2c(cc1F)NC(=O)C(C)(C)C2 [Compound 42, 4-cyano-2-ethyl-N-(7-fluoro-3,3-dimethyl-2-oxo-1,4-dihydroquinolin-6-yl)benzamide] |
| 5.30 to 6.00 | 6.00 to 6.60 | CCc1cnccc1/C=C/c1ccc2c(c1)CC(C)(C)C(=O)N2 [Compound 43, 6-[(E)-2-(3-ethyl-4-pyridyl)vinyl]-3,3-dimethyl-1,4-dihydroquinolin-2-one] |
| 6.00 to 6.60 | 6.00 to 6.60 | CCc1cnccc1/C=C/c1cc2c(cc1F)NC(=O)CC2 [Compound 45, 6-[(E)-2-(3-ethyl-4-pyridyl)vinyl]-7-fluoro-3,4-dihydro-1H-quinolin-2-one] |
| 5.30 to 6.00 | 5.30 to 6.00 | CC1(C)Cc2cc(Nc3ccc4ccccc4n3)ccc2NC1=O [Compound 46, 3,3-dimethyl-6-(2-quinolylamino)-1,4-dihydroquinolin-2-one] |
| > 7.00 | 6.60 to 7.00 | O=C1CCc2cc(Nc3ccc4ccccc4n3)c(F)cc2N1 [Compound 47, 7-fluoro-6-(2-quinolylamino)-3,4-dihydro-1H-quinolin-2-one] |
| 6.00 to 6.60 | 6.00 to 6.60 | CC1(C)Cc2cc(Nc3ccc4ccccc4n3)c(F)cc2NC1=O [Compound 48, 7-fluoro-3,3-dimethyl-6-(2-quinolylamino)-1,4-dihydroquinolin-2-one] |
| 5.30 to 6.00 | 6.60 to 7.00 | CCc1c(C(=O)Nc2ccc3c(c2)CCC(=O)N3)cc[nH]c1=O [Compound 50, 3-ethyl-2-oxo-N-(2-oxo-3,4-dihydro-1H-quinolin-6-yl)-1H-pyridine-4-carboxamide] |
| < 5.30 | < 5.30 | CCc1c[nH]c(=O)cc1C(=O)Nc1ccc2c(c1)CCC(=O)N2 [Compound 51, 5-ethyl-2-oxo-N-(2-oxo-3,4-dihydro-1H-quinolin-6-yl)-1H-pyridine-4-carboxamide] |
| 6.60 to 7.00 | 6.00 to 6.60 | O=C1CCc2cc(NC(=O)c3ccnc4ccccc34)ccc2N1 [Compound 52, N-(2-oxo-3,4-dihydro-1H-quinolin-6-yl)quinoline-4-carboxamide] |
| < 5.30 | 6.00 to 6.60 | O=C1CCc2cc(NC(=O)c3ccncc3C(F)(F)F)ccc2N1 [Compound 54, N-(2-oxo-3,4-dihydro-1H-quinolin-6-yl)-3-(trifluoromethyl)pyridine-4-carboxamide] |
| 6.00 to 6.60 | 6.00 to 6.60 | CCc1c(C(=O)Nc2ccc3c(c2)CCC(=O)N3)ccnc1C [Compound 55, 3-ethyl-2-methyl-N-(2-oxo-3,4-dihydro-1H-quinolin-6-yl)pyridine-4-carboxamide] |
| 6.00 to 6.60 | 6.60 to 7.00 | CCc1cnc(C)cc1C(=O)Nc1ccc2c(c1)CCC(=O)N2 [Compound 56, 5-ethyl-2-methyl-N-(2-oxo-3,4-dihydro-1H-quinolin-6-yl)pyridine-4-carboxamide] |
| < 5.30 | < 5.30 | COCc1cnccc1C(=O)Nc1ccc2c(c1)CCC(=O)N2 [Compound 57, 3-(methoxymethyl)-N-(2-oxo-3,4-dihydro-1H-quinolin-6-yl)pyridine 4 carboxamide] |
| < 5.30 | < 5.30 | CN(C)Cc1cnccc1C(=O)Nc1ccc2c(c1)CCC(=O)N2 [Compound 58, 3-[(dimethylamino)methyl]-N-(2-oxo-3,4-dihydro-1H-quinolin-6-yl)pyridine-4-carboxamide] |
